Results taken from the supplement of paper PMC11061612.

Columns and labels:
Assay in all cases: combination Emax (second highest fraction inhibited in the dose matrix, 72 h); higher = more inhibition; extreme values may be limits of the assay
[1] = tested on: CFPAC-1 (Pancreatic Carcinoma)
How it was run: (§1)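 After 24 hours at 37°C and 5% CO2 in 1536-well plates, cells in DMEM/F12 or RPMI plus 10% FBS received two-drug dose matrices for 72 hours. Viability came from CellTiter-Glo 2.0 luminescence and was scaled as inhibition, anchored at 0 by vehicle wells and at 1 by blank wells. Combination Emax is taken as the second-highest inhibition in the matrix, and Bliss excess as the observed combination effect less EA + EB − EA·EB, with EA and EB the single-agent effects.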

[2] = tested on: COR-L23 (Non-Small Cell Lung Carcinoma)
How it was run: as §1

[3] = tested on: COR-L95 (Small Cell Lung Carcinoma)
How it was run: as §1

[4] = tested on: HPAC (Pancreatic Carcinoma)
How it was run: as §1

[5] = tested on: HT-29 (Colorectal Carcinoma)
How it was run: as §1

[6] = tested on: IHH-4 (Thyroid Gland Carcinoma)
How it was run: as §1

[7] = tested on: KM-H2 (Hodgkin's Lymphoma)
How it was run: as §1

[8] = tested on: MDA-MB-157 (Breast Carcinoma)
How it was run: as §1

[9] = tested on: NCI-H1694 (Small Cell Lung Carcinoma)
How it was run: as §1

[10] = tested on: NCI-H1781 (Lung Adenocarcinoma)
How it was run: as §1

NCI-H2369 (Mesothelioma) = tested on: NCI-H2369 (Mesothelioma)
How it was run: as §1

[11] = tested on: OCI-AML2 (Acute Myeloid Leukemia)
How it was run: as §1

RH-1 (Ewing's Sarcoma) = tested on: RH-1 (Ewing's Sarcoma)
How it was run: as §1

[12] = tested on: SNU-C5 (Colorectal Carcinoma)
How it was run: as §1

[13] = tested on: SW1783 (Low Grade Glioma)
How it was run: as §1

[14] = tested on: SW1990 (Pancreatic Carcinoma)
How it was run: as §1

[15] = tested on: SW756 (Cervical Carcinoma)
How it was run: as §1

[16] = tested on: SW780 (Bladder Carcinoma)
How it was run: as §1

[17] = tested on: TGBC24TKB (Biliary Tract Carcinoma)
How it was run: as §1

[18] = tested on: U-266 (Plasma Cell Myeloma)
How it was run: as §1

Compound	combination Emax [7]	combination Emax [1]	combination Emax [2]	combination Emax [3]	combination Emax [4]	combination Emax [5]	combination Emax [6]	combination Emax [8]	combination Emax [9]	combination Emax [10]	combination Emax (NCI-H2369 (Mesothelioma))	combination Emax [11]	combination Emax (RH-1 (Ewing's Sarcoma))	combination Emax [12]	combination Emax [13]	combination Emax [14]	combination Emax [15]	combination Emax [16]	combination Emax [17]	combination Emax [18]
COc1nnc2ccc(N3CCC(c4ccc(OCCN5CCN(C)C(=O)[C@H]5C)cc4)CC3)nn12 [AZD5153] + CC1(C)CCC(CN2CCN(c3ccc(C(=O)NS(=O)(=O)c4ccc(NCC5CCOCC5)c([N+](=O)[O-])c4)c(Oc4cnc5[nH]ccc5c4)c3)CC2)=C(c2ccc(Cl)cc2)C1 [Venetoclax] (first compound max 1 µM, 7x7, partner max 1 µM)	0.377	0.416	0.317	0.802	0.535	0.718	0.498	0.498	0.551	0.224	0.327	1	0.334	0.522	0.28	0.108	0.315	0.375	0.642	0.272
C[C@@H](c1ccc2nccn2c1)n1nnc2ncc(-c3cnn(C)c3)nc21 [Savolitinib] + CC1(C)CCC(CN2CCN(c3ccc(C(=O)NS(=O)(=O)c4ccc(NCC5CCOCC5)c([N+](=O)[O-])c4)c(Oc4cnc5[nH]ccc5c4)c3)CC2)=C(c2ccc(Cl)cc2)C1 [Venetoclax] (first compound max 1 µM, 7x7, partner max 1 µM)	0.15	0.0889	0.111	0.586	0.143	0.149	0.0656	0.11	0.102	0.208	0.096	0.93	0.0824	0.183	0.156	0.225	0.1	0.11	0.215	0.259
Cc1c2c(nn1C)CSCc1cc(n(C)n1)CSc1cc(c3ccccc3c1)OCCCc1c(C(=O)O)n(C)c3c-2c(Cl)ccc13 [AZD5991] + Cn1cnc2c(F)c(Nc3ccc(Br)cc3Cl)c(C(=O)NOCCO)cc21 [Selumetinib] (first compound max 1 µM, 7x7, partner max 3 µM)	0.191	0.322	0.31	0.306	0.673	0.706	0.385	0.641	0.986	0.492	0.151	1	0.52	0.456	0.211	0.41	0.336	0.333	0.418	0.985
Cc1c2c(nn1C)CSCc1cc(n(C)n1)CSc1cc(c3ccccc3c1)OCCCc1c(C(=O)O)n(C)c3c-2c(Cl)ccc13 [AZD5991] + C[C@@H]1COCCN1C2=NC(=NC(=C2)C3(CC3)[S@](=N)(=O)C)C4=C5C=CNC5=NC=C4 [AZD6738] (first compound max 1 µM, 7x7, partner max 10 µM)	0.814	0.555	0.57	0.638	0.683	0.836	0.709	0.966	1	0.752	0.247	1	0.956	0.795	0.441	0.491	0.283	0.255	0.672	0.95

Second part, led by results:

combination Emax [7]	Compound	combination Emax [1]	combination Emax [2]	combination Emax [3]	combination Emax [4]	combination Emax [5]	combination Emax [6]	combination Emax [8]	combination Emax [9]	combination Emax [10]	combination Emax (NCI-H2369 (Mesothelioma))	combination Emax [11]	combination Emax (RH-1 (Ewing's Sarcoma))	combination Emax [12]	combination Emax [13]	combination Emax [14]	combination Emax [15]	combination Emax [16]	combination Emax [17]	combination Emax [18]
0.097	CC1(C)CCC(CN2CCN(c3ccc(C(=O)NS(=O)(=O)c4ccc(NCC5CCOCC5)c([N+](=O)[O-])c4)c(Oc4cnc5[nH]ccc5c4)c3)CC2)=C(c2ccc(Cl)cc2)C1 [Venetoclax] + Cn1cnc2c(F)c(Nc3ccc(Br)cc3Cl)c(C(=O)NOCCO)cc21 [Selumetinib] (first compound max 1 µM, 7x7, partner max 3 µM)	0.275	0.2	0.572	0.559	0.64	0.539	0.546	0.324	0.166	0.119	1	0.0877	0.289	0.124	0.49	0.225	0.227	0.293	0.722
0.362	NC1(C(=O)N[C@@H](CCO)c2ccc(Cl)cc2)CCN(c2ncnc3[nH]ccc23)CC1 [Capivasertib] + CCN(CCO)CCCOc1ccc2c(Nc3cc(CC(=O)Nc4cccc(F)c4)[nH]n3)ncnc2c1 [AZD2811] (first compound max 10 µM, 7x7, partner max 1 µM)	0.319	0.474	0.172	0.395	0.427	0.618	0.276	0.508	0.799	0.231	0.904	0.981	0.501	0.469	0.136	0.287	0.28	0.58	0.312
